Results as given in patent US20210275514A1, “COMPOUNDS FOR USE IN TREATING KIDNEY DISORDERS” (Hoffmann-La Roche Inc., priority 2018, published 2021).
Entries after “also recorded” stand apart in the source; their conditions may differ.

Key:
Type in all cases: in vivo
[1] = test system: 129 Col4a3 KO mice; assay: Alport mouse model, treatment from 4 weeks of age
Experimental: (§1) 129 Col4a3^tm1/Dec/J mice were purchased from Jackson Labs and bred to generate Col4a3 KO mice. Mice were genotyped and selected using the primers: F ([…]), R ([…]) and Rm ([…]) in a PCR reaction (94 C for 5 min, followed by 30 cycles of 30 sec at 95 C, 15 sec at 60 C and 30 sec 72 C, and 1 min at 72 C). 129 Col4A3-KO mice were divided into two groups of 5 mice (males and females) each. At the age of 4 weeks, mice started receiving either vehicle or Cpd G (100 mg/Kg) by oral gavage once daily for 4 weeks. Body weight measurements and spot urine collection was performed once a week. Animals were sacrificed at the end of the treatment at the age of 8 weeks. A late study was also performed to evaluate if treatment of Col4A3-KO mice at time of established disease would prolong mice survival. In this study, mice were treated with Cpd G (100 mg/Kg/day) by daily oral gavage starting at 6 weeks of age and survival was assessed.
(§2) Spot urine samples were collected for all mice at baseline and time of sacrifice. Urinary albumin and creatinine were determined using an albumin ELISA kit (Bethyl laboratories) and a colorimetric assay for creatinine determination (Stanbio). Albuminuria was calculated and expressed as μg of albumin divided by mg of creatinine. For diabetic mouse model, weight and glycaemia were measured on a bi-weekly basis.
Lipid droplet staining Filtered Oil-Red O-Isopropanol solution (Electron Microscopy Science, PA) was diluted with water (6:4). 4 μm kidney sections were incubated with 100 μl freshly prepared Oil-Red O solution (ORO) for 15 minutes and counterstained with Hematoxylin Harris Hg Free (VWR, PA) to detect lipid deposition. Glomeruli staining was evaluated using a light microscope (Olympus BX 41, Tokyo, Japan).
(§3) Renal lipids species assays. Kidney cortex sections were snap frozen and utilized for lipid extraction and cholesterol content determination. The tissue was homogenized in 2 mM potassium phosphate buffer in a glass douncer on ice. Lipids in 100 μl homogenate (˜5-10 mg tissue) were extracted with 1 ml hexane:isopropanol (3:2) for two sequential 30-minute extractions. The solvent containing lipids was then dried in Nitrogen atmosphere. Lipids were then reconstituted using isopropanol: NP-40 (9:1) and cholesterol content was quantified using the Amplex red cholesterol assay kit (Invitrogen) according to the manufacturers protocol. Triglycerides in lipid extracts were assayed with a colorimetric kit according to manufacturer's instructions (Cayman). Total cholesterol and cholesterol esters were assayed using an enzymatic fluorometric method. For total cholesterol renal lipid extracts were diluted in assay buffer (100 mM potassium phosphate, 50 mM NaCl, 5 mM cholic acid, 0.1% […], pH 7.4) and incubated with same buffer supplemented with a final concentration of 1 U/ml cholesterol oxidase, 1 U/ml cholesterol esterase, 1 U/ml horseradish peroxidase, and 75 μM Amplex Red. The reactions were incubated at 37° C. for 30 min in a black opaque 96 well plate (Greiner) and fluorescence was measured in a microplate reader (Spectramax i3X, Molecular Devices) using 530 nm excitation and 580 emission.
Cholesterol esters were assayed using a direct method described by Mizoguchi et al (Mizoguchi, 2004). Briefly 150 μl of FC decomposition reagent (45 U/ml bovine catalase and 1 U/ml cholesterol oxidase, in assay buffer described above) was added to 25 μl of sample containing up to 1 mM total cholesterol. Free cholesterol was allowed to decompose overnight at 37° C. and then 75 μl of 4× cholesterol ester detection reagent (1 U/ml cholesterol oxidase, 4 U/ml cholesterol esterase, 24 U/ml horseradish peroxidase, 300 μM Amplex Red) was added. Reaction was incubated at 37° C. for 30 min and fluorescence was measured as described above for total cholesterol. 1 mM of cholesterol and 5 μM of cholesterol oleate standards were included as internal controls to validate assay sensibility and specificity. […]

[2] = test system: 129 Col4a3 KO mice; assay: Alport mouse model, late study of survival, treatment from 6 weeks of age; settings: 100 mg/Kg/day oral gavage started in 6 weeks old mice
Experimental: as §1

[3] = test system: db/db mice; assay: DKD mouse model; settings: 30 mg/Kg once daily; for albuminuria (albumin to creatinine ratio): vs db/db vehicle
Experimental: B6.BKS^db/db and B6.BKS^db/+ mice were purchased from the Jackson laboratory. At the age of 14 weeks, mice started receiving vehicle or the ABCA1 inducer Cpd A (30 mg/Kg) by oral gavage once daily for 4 weeks. Body weight measurements and urine collection was performed every week. Mice were sacrificed at 18 weeks old, blood was collected and tissues were processed and analyzed as described below.
as §2
Kidney cortex sections were embedded in OCT for further analysis of immunofluorescent staining and lipid droplet. Specifically, for determination of podocyte number per glomerular cross-section was determined using 4 μm-thick tissue sections that were cut and stained with WT1 antibody (1:200, Santa Cruz) and prolong GOLD DAPI mounting media. Images were acquired with confocal microscopy using a Leica SP5 inverted microscope with the 40× wet objective. 20 glomeruli per mouse were quantified.
Electron microscopy. For transmission electron microscopy kidney cortex sections were placed in 4% paraformaldehyde, 1% gluteraldehyde in 0.1 M phosphate buffer (pH 7.4). Foot processes were quantified per 1 μm of the glomerular basement membrane.
as §3
Cholesterol esters were assayed using a direct method described by Mizoguchi et al (Mizoguchi, 2004). Briefly 150 μl of FC decomposition reagent (45 U/ml bovine catalase and 1 U/ml cholesterol oxidase, in assay buffer described above) was added to 25 μl of sample containing up to 1 mM total cholesterol. Free cholesterol was allowed to decompose overnight at 37° C. and then 75 μl of 4× cholesterol ester detection reagent (1 U/ml cholesterol oxidase, 4 U/ml cholesterol esterase, 24 U/ml horseradish peroxidase, 300 μM Amplex Red) was added. Reaction was incubated at 37° C. for 30 min and fluorescence was measured as described above for total cholesterol. 1 mM of cholesterol and 5 μM of cholesterol oleate standards were included as internal controls to validate assay sensibility and specificity.
Pathological evaluation. Kidney cortex sections were paraffin-embedded and cut at 4 μm thick for periodic acid-Schiff (PAS) and HE. […]

[4] = 100 mg/Kg once daily, 4 weeks from age 4 weeks, vs vehicle

Row | Structure (SMILES) | progression to ESRD ([1]; 100 mg/Kg once daily, 4 weeks from age 4 weeks) | Albuminuria [1, 4] | BUN [1, 4] | Body weight loss [1, 4] | mesangial expansion (PAS-stained kidney sections) [1, 4] | serum creatinine [1, 4] | lipid accumulation in kidney cortex sections (Oil-red O staining) ([1]; 8 week old mice, 28 days treatment) | cholesterol ester in kidneys ([1]; 8 week old mice, 28 days treatment, normalized to total protein) | increased life span [2] [%] | Blood urea nitrogen (BUN) ([3]; 4 weeks) | cholesterol esters in kidney cortex ([3]; 4 weeks) | mesangial expansion (PAS stained sections) ([3]; 4 weeks) | podocyte foot process effacement (TEM) ([3]; 4 weeks) | podocyte number (WT1 positive cells) ([3]; 4 weeks) | albuminuria (albumin to creatinine ratio) ([3]; after four weeks of treatment (18 weeks)) | albuminuria (albumin to creatinine ratio) ([3]; after two weeks of treatment (16 weeks))
1 | O=C(N[C@@H]1CCCC[C@H]1O)c1cnc(OCC(F)(F)F)c(-c2ccc(Cl)c(Cl)c2)c1 [Cpd G, 5-(3,4-dichloro-phenyl)-N-((1R,2R)-2-hydroxy-cyclohexyl)-6-(2,2,2-trifluoro-ethoxy)-nicotinamide] | delays progression to end stage renal disease; also recorded: delayed progression to ESRD | significantly less | significantly less | lost less weight | significantly less mesangial expansion | significantly less | reduced | reduces esterified cholesterol accumulation; also recorded: significantly reduced | ~15 | – | – | – | – | – | – | –
2 | O=C(N[C@@H]1CCCC[C@H]1O)c1ccc(OCC(F)(F)F)c(-c2ccc(Cl)c(Cl)c2)n1 [Cpd A, 6-(3,4-Dichlorophenyl)-N-[(1R,2R)-2-hydroxycyclohexyl]-5-(2,2,2-trifluoroethoxy)pyridine-2-carboxamide] | – | – | – | – | – | – | – | – | – | significantly improved | significant reduction | improved | improved | improved | even further reduction | reduction in albuminuria
